# From US10336809B2, “Peptides and combination of peptides for use in immunotherapy against various tumors” (immatics biotechnologies GmbH, priority 2015, dated 2019)
# System: CD8+ T cells
# Experiment: In vitro T-cell priming assay with aAPCs loaded with peptide/MHC complexes and anti-CD28 antibody, pMHC multimer readout
# Type: cell-based, human
# Conditions: healthy HLA-A*02+ donors, positive donors
# Description: In order to obtain information regarding the immunogenicity of the TUMAPs of the present invention, the inventors performed investigations using an in vitro T-cell priming assay based on repeated stimulations of CD8+ T cells with artificial antigen presenting cells (aAPCs) loaded with peptide/MHC complexes and anti-CD28 antibody.
# In order to perform in vitro stimulations by artificial antigen presenting cells loaded with peptide-MHC complex (pMHC) and anti-CD28 antibody, the inventors first isolated CD8+ T cells from fresh HLA-A*02 leukapheresis products via positive selection using CD8 microbeads (Miltenyi Biotec, Bergisch-Gladbach, Germany) of healthy donors obtained from the University clinics Mannheim, Germany, after informed consent. PBMCs and isolated CD8+ lymphocytes were incubated in T-cell medium (TCM) until use consisting of RPMI-Glutamax (Invitrogen, Karlsruhe, Germany) supplemented with 10% heat inactivated human AB serum (PAN-Biotech, Aidenbach, Germany), 100 U/ml Penicillin/100 μg/ml Streptomycin (Cambrex, Cologne, Germany), 1 mM sodium pyruvate (CC Pro, Oberdorla, Germany), 20 μg/ml Gentamycin (Cambrex). 2.5 ng/ml IL-7 (PromoCell, Heidelberg, Germany) and 10 U/ml IL-2 (Novartis Pharma, Nürnberg, Germany) were also added to the TCM at this step. Generation of pMHC/anti-CD28 coated beads, T-cell stimulations and readout was performed in a highly defined in vitro system using four different pMHC molecules per stimulation condition and 8 different pMHC molecules per readout condition.
# The purified co-stimulatory mouse IgG2a anti human CD28 Ab 9.3 (Jung et al., 1987) was chemically biotinylated using Sulfo-N-hydroxysuccinimidobiotin as recommended by the manufacturer (Perbio, Bonn, Germany). Beads used were 5.6 μm diameter streptavidin coated polystyrene particles (Bangs Laboratories, Illinois, USA).
# pMHC used for positive and negative control stimulations were A*0201/MLA-001 (peptide […] (SEQ ID NO. 289) from modified Melan-A/MART-1) and A*0201/DDX5-001 ([…] from DDX5, SEQ ID NO. 290), respectively.
# 800.000 beads/200 μl were coated in 96-well plates in the presence of 4×12.5 ng different biotin-pMHC, washed and 600 ng biotin anti-CD28 were added subsequently in a volume of 200 μl. Stimulations were initiated in 96-well plates by co-incubating […] CD8+ T cells with 2×10^5 washed coated beads in 200 μl TCM supplemented with 5 ng/ml IL-12 (PromoCell) for 3 days at 37° C. Half of the medium was then exchanged by fresh TCM supplemented with 80 U/ml IL-2 and incubating was continued for 4 days at 37° C. This stimulation cycle was performed for a total of three times. For the pMHC multimer readout using 8 different pMHC molecules per condition, a two-dimensional combinatorial coding approach was used as previously described (Andersen et al., 2012) with minor modifications encompassing coupling to 5 different fluorochromes. Finally, multimeric analyses were performed by staining the cells with Live/dead near IR dye (Invitrogen, Karlsruhe, Germany), CD8-FITC antibody clone SK1 (BD, Heidelberg, Germany) and fluorescent pMHC multimers. For analysis, a BD LSRII SORP cytometer equipped with appropriate lasers and filters was used. Peptide specific cells were calculated as percentage of total CD8+ cells. Evaluation of multimeric analysis was done using the FlowJo software (Tree Star, Oregon, USA). In vitro priming of specific multimer+ CD8+ lymphocytes was detected by comparing to negative control stimulations.
# Exemplary flow cytometry results after TUMAP-specific multimer staining for 2 peptides of the invention are shown in FIG. 3 together with corresponding negative controls.
row,Substance,"in vitro immunogenicity, donors"
1,288 (SLYKGLLSV; listed as Homo sapiens) [compound 288],++++ (>=70% = ++++)
2,287 (KIQEILTQV; listed as Homo sapiens) [compound 287],+++ (50%-69% = +++)

# Same assay, conditions: healthy HLA-A*02+ donors, positive wells
row,Substance,"in vitro immunogenicity, wells"
1,287 (KIQEILTQV; listed as Homo sapiens) [compound 287],+ (<20% = +)

# Same assay, conditions: in vitro immunogenicity, HLA-A*02 restricted peptides, CD8+ T cells of healthy donors, pMHC multimer readout
row,Substance,Wells positive [%]
1,257 (KLIDHQGLYL; listed as Homo sapiens) [compound 257],+ (<20% = +)
2,254 (ALGDKFLLRV; listed as Homo sapiens) [compound 254],+ (<20% = +)
3,39 (YLEDGFAYV; listed as Homo sapiens) [compound 39],++++ (>=70% = ++++)
4,97 (KLFEKSTGL; listed as Homo sapiens) [compound 97],+ (<20% = +)
5,242 (KLQEEIPVL; listed as Homo sapiens) [compound 242],+ (<20% = +)
6,66 (AMFPDTIPRV; listed as Homo sapiens) [compound 66],+ (<20% = +)
7,17 (GLLPSAESIKL; listed as Homo sapiens) [compound 17],+ (<20% = +)
8,246 (ALAGIVTNV; listed as Homo sapiens) [compound 246],+ (<20% = +)
9,264 (TLHDQVHLL; listed as Homo sapiens) [compound 264],+ (<20% = +)
10,263 (SIIEYLPTL; listed as Homo sapiens) [compound 263],+ (<20% = +)
11,14 (YTFSGDVQL; listed as Homo sapiens) [compound 14],+ (<20% = +)
12,27 (GLLGKVTSV; listed as Homo sapiens) [compound 27],+ (<20% = +)
13,34 (TLNTLDINL; listed as Homo sapiens) [compound 34],++++ (>=70% = ++++)
14,77 (ALYGNVQQV; listed as Homo sapiens) [compound 77],+ (<20% = +)
15,121 (ALYVQAPTV; listed as Homo sapiens) [compound 121],+ (<20% = +)
16,50 (ILLSVLHQL; listed as Homo sapiens) [compound 50],+ (<20% = +)
17,255 (FLMKNSDLYGA; listed as Homo sapiens) [compound 255],+ (<20% = +)
18,260 (ALNESLVEC; listed as Homo sapiens) [compound 260],+ (<20% = +)
19,89 (SLAETIFIV; listed as Homo sapiens) [compound 89],+ (<20% = +)
20,102 (GLYPVTLVGV; listed as Homo sapiens) [compound 102],+ (<20% = +)
21,101 (SLLEVNEASSV; listed as Homo sapiens) [compound 101],+ (<20% = +)
22,236 (KMSELQTYV; listed as Homo sapiens) [compound 236],+ (<20% = +)
23,267 (YLLDMPLWYL; listed as Homo sapiens) [compound 267],+ (<20% = +)
24,29 (KMISAIPTL; listed as Homo sapiens) [compound 29],+ (<20% = +)
25,4 (VLFGELPAL; listed as Homo sapiens) [compound 4],+ (<20% = +)
26,157 (ILQDGQFLV; listed as Homo sapiens) [compound 157],+ (<20% = +)
27,35 (VIIKGLEEI; listed as Homo sapiens) [compound 35],+ (<20% = +)
28,233 (SLFESLEYL; listed as Homo sapiens) [compound 233],+ (<20% = +)
29,9 (SLITGQDLLSV; listed as Homo sapiens) [compound 9],+ (<20% = +)
